Data taken from patent US11104661B1, “Inhibiting human integrin (α-4) (β-7)” (Morphic Therapeutic, Inc., priority 2019, dated 2021).

target: T1, integrin α4β7 (Homo sapiens, UniProt P13612+P26010); assay: Fluorescence polarization (FP) assay for α4β7 binding (Example 5); conditions: competition with fluorescein-labeled peptide, 6.5 nM integrin α4β7, 2 mM manganese chloride; Table 3
T1 sequence (P13612 35-977 limits assumed): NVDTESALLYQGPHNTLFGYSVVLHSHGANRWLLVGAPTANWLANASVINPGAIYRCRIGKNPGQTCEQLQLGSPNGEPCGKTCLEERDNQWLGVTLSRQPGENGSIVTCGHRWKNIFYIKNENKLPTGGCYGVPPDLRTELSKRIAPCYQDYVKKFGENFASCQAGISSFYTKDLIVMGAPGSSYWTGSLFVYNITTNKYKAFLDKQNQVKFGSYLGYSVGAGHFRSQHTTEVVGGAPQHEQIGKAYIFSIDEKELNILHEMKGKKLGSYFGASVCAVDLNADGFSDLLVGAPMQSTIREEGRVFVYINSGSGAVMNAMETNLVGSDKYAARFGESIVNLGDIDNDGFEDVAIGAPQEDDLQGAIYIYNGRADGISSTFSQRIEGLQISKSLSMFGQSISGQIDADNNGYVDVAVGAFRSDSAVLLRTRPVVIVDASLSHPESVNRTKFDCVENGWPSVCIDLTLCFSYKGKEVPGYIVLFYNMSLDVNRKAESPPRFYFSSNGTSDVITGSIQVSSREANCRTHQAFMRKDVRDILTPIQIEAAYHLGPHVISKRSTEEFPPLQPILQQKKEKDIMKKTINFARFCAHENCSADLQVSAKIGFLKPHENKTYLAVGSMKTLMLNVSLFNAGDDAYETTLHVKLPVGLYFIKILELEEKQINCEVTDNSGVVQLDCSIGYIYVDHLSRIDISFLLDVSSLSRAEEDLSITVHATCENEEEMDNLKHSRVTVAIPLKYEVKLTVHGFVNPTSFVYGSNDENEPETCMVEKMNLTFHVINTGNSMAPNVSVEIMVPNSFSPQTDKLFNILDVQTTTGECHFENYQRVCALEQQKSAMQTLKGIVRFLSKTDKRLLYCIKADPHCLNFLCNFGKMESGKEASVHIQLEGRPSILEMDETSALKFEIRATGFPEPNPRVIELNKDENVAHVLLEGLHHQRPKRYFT
T1 sequence (P26010 20-723 limits assumed): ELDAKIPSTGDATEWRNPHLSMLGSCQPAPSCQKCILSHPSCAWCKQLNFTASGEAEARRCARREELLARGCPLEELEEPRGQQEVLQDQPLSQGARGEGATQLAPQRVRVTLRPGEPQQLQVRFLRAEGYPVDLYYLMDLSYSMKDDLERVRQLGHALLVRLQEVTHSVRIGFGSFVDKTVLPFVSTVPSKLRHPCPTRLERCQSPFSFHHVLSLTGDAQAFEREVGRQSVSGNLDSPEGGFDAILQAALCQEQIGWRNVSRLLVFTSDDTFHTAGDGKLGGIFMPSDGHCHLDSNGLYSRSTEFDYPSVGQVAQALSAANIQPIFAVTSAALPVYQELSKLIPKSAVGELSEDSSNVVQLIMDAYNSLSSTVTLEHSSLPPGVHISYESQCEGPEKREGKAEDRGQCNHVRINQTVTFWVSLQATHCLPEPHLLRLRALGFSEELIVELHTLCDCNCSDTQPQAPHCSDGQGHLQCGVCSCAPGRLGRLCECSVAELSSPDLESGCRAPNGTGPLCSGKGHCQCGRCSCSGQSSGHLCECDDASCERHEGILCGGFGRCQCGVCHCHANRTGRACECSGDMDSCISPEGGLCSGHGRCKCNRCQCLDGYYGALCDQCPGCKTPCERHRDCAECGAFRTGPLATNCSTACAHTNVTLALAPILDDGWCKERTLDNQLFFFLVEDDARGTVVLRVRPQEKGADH
Experimental: Compounds of Formula (I) were evaluated using a fluorescent polarization (FP) assay. FP assays are used to evaluate potency of compounds on purified protein. The FP assays consists of measuring purified integrin αβ heterodimer ecto domains or headpiece binding to surrogate or truncated ligands.
Three in vitro assays were used to examine the α4β7 mechanistic process used by cells: 1) ligand:receptor affinity, 2) the avidity of those interactions on a cell's surface, and 3) how those interactions fare under an imposing force. In Example 5, a Fluorescence Polarization (FP) assay is used to measure compound activity through binding competition with the fluorescein-labeled peptide. In Example 6, the potency of compounds against α4β7 is measured in the cell-based ligand binding assay (LBA), using RPMI 8866 cells incubated with the compound samples in competition with soluble MAdCAM-1 ligand. In Example 7, activity of compounds is evaluated in a cell adhesion assay that mechanistically tests what occurs in vivo when trafficking cells utilize α4β7 to adhere to MAdCAM-1 expressing HEVs of the gut during the extravasation process. In the cell adhesion assay of Example 7, a MAdCAMI1-(Fc) is coated on plastic, and α4β7 expressing cells (RPMI-8866) are allowed to adhere to the coated surface in the presence of the test compounds. Next, the force of washing with buffer is applied to cells thereby testing the strength of that adhesion. Unattached cells are removed and the remaining adherent cells are quantified.
Fluorescence Polarization (FP) assays were used to measure compound activity through binding competition with the fluorescein-labeled peptide […]{Lys(FITC)}. In the assay, 6.5 nM of integrin α4β7 was incubated with the test compound in 2 mM manganese chloride, 0.1 mM calcium chloride, 20 mM HEPES buffer at pH 7.3, 150 mM sodium chloride, 0.01% Triton X-100, 2% DMSO, and 3 nM of the fluorescein-labeled peptide. Running the assays in 384-well plates, the integrin protein was pre-incubated with the test compounds for 15 minutes at 22° C. before the fluorescein-labeled peptide was added. After the fluorescein-labeled peptide was added, the assay was incubated at 22° C. for 1 hour and fluorescence polarization was measured. IC50 values were determined by nonlinear regression, four-parameter curve fitting.

Row | SMILES | IC50 [µM]
1 | Cc1cccc(C)c1-c1cc([C@H](CC(=O)O)NC(=O)C(CC(C)C)n2cc(CCN3CCC3)c(C(F)(F)F)cc2=O)c(F)c(C(F)(F)F)c1 (single isomer, unassigned) [G-P2] | ≤ 0.01
2 | Cc1cc(C)c(-c2cc(C)c(F)c([C@H](CC(=O)O)NC(=O)C(CC(C)C)n3cc(CCN(C)C)c(C(F)(F)F)cc3=O)c2)c(C)c1 (single isomer, unassigned) [AC-P2] | ≤ 0.01
3 | Cc1cc(-c2c(C)cccc2C)cc([C@H](CC(=O)O)NC(=O)C(CC(C)C)n2cc(CCN3CC[C@@H](F)C3)cc(F)c2=O)c1F (single isomer, unassigned) [AU-P2] | ≤ 0.01
4 | Cc1cc(-c2c(C)ccc(F)c2C)cc([C@H](CC(=O)O)NC(=O)C(CC(C)C)n2cc(CCN3CCC3)c(C(F)(F)F)cc2=O)c1F (single isomer, unassigned) [AF-P2] | ≤ 0.01

Other lines, results leading:

Row | IC50 [µM] | SMILES
5 | ≤ 0.01 | COc1ccc(C)c(-c2cc(C)c(F)c([C@H](CC(=O)O)NC(=O)C(CC(C)C)n3cc(CCN4CCC4)c(C(F)(F)F)cc3=O)c2)c1C (single isomer, unassigned) [AG-P2]
6 | ≤ 0.01 | Cc1cc(-c2c(C)cccc2C)cc([C@H](CC(=O)O)NC(=O)C(CC(C)C)n2cc(CCN3CC(F)C3)cc(F)c2=O)c1F (single isomer, unassigned) [AV-P2]

same assay, conditions: competition with fluorescein-labeled peptide, 6.5 nM integrin α4β7, 2 mM manganese chloride; Table 4 comparative compounds

Row | SMILES | IC50 [µM]
7 | Cc1cccc(C)c1-c1cccc([C@H](CC(=O)O)NC(=O)[C@H](CC(C)C)n2cc(CN3CC(F)C3)ccc2=O)c1 [drawing 589] | ≤ 0.01
8 | Cc1cccc(C)c1-c1cccc([C@H](CC(=O)O)NC(=O)[C@H](CC(C)C)n2cc(CN3CC(F)C3)ccc2=O)c1 [drawing 577] | ≤ 0.01
9 | Cc1ccccc1-c1cc([C@H](CC(=O)O)NC(=O)C(CC(C)C)n2ccccc2=O)ccn1 (some centres unmarked) | 0.01 to 0.5
10 | Cc1cccc(C)c1-c1cccc([C@H](CC(=O)O)NC(=O)[C@H](CC(C)C)n2cc(CN3CC(F)C3)ccc2=O)c1 [drawing 572] | ≤ 0.01
11 | COc1ccc([C@H](CC(=O)O)NC(=O)C(CC(C)C)n2ccccc2=O)cc1-c1ccccc1C (some centres unmarked) | 0.01 to 0.5
12 | Cc1cccc(C)c1-c1cccc([C@H](CC(=O)O)NC(=O)[C@H](CC(C)C)n2cc(CN3CC[C@@H](F)C3)ccc2=O)c1 | ≤ 0.01
13 | Cc1ccn([C@@H](CC(C)C)C(=O)N[C@@H](CC(=O)O)c2cncc(-c3c(C)cccc3C)c2)c(=O)c1 | ≤ 0.01
14 | CC(C)C[C@@H](C(=O)N[C@@H](CC(=O)O)c1ccc(-c2ccc(F)cc2)cc1)n1cc(CCN2CC(F)C2)cc(F)c1=O | ≤ 0.01
15 | COC[C@@H](C(=O)N[C@@H](CC(=O)O)c1cccc(-c2c(C)cccc2C)c1)n1ccc(C)cc1=O | 0.01 to 0.5
16 | Cc1cccc(C)c1-c1cccc([C@H](CC(=O)O)NC(=O)[C@H](CC(C)C)n2cc(CN3CC(F)C3)ccc2=O)c1 [drawing 594] | ≤ 0.01
17 | CC(C)C[C@@H](C(=O)N[C@@H](CC(=O)O)c1ccc(-c2ccccc2)cc1)n1cc(CCN(C)C)c(C(F)(F)F)cc1=O | 0.01 to 0.5
18 | Cc1cccc(C)c1-c1cccc([C@H](CC(=O)O)NC(=O)[C@H](CC(C)C)n2cc(CN3CC(F)C3)ccc2=O)c1 [drawing 599] | ≤ 0.01
19 | Cc1ccccc1-c1cccc([C@H](CC(=O)O)NC(=O)[C@H](CC(C)C)n2ccccc2=O)c1 | 0.01 to 0.5
20 | Cc1cccc(C)c1-c1cncc([C@H](CC(=O)O)NC(=O)[C@H](CC(C)C)n2cc(CN3CC(F)C3)ccc2=O)c1 | ≤ 0.01
21 | CC(C)C[C@@H](C(=O)N[C@@H](CC(=O)O)c1ccc(-c2ccc(F)cc2)cc1)n1cc(CCN(C)C)c(C(F)(F)F)cc1=O | ≤ 0.01

Second part, the molecule after the results:

Row | IC50 [µM] | SMILES
22 | ≤ 0.01 | Cc1ccccc1-c1cccc([C@H](CC(=O)O)NC(=O)[C@H](CC(C)C)n2cccc(C)c2=O)c1
23 | ≤ 0.01 | Cc1cccc(C)c1-c1cncc([C@H](CC(=O)O)NC(=O)[C@H](CC(C)C)n2ccc(C(F)(F)F)cc2=O)c1
24 | 0.01 to 0.5 | COc1cccc(F)c1-c1cccc([C@H](CC(=O)O)NC(=O)[C@H](CC(C)C)n2cnc3ccccc3c2=O)c1
25 | 0.01 to 0.5 | Cc1cccc(C)c1-c1cc([C@H](CC(=O)O)NC(=O)[C@H](CC(C)C)n2ccccc2=O)ccn1
26 | ≤ 0.01 | Cc1cccc(C)c1-c1cncc([C@H](CC(=O)O)NC(=O)[C@H](CC(C)C)N2CC[C@@H](C(F)(F)F)CC2=O)c1
27 | ≤ 0.01 | CC(C)C[C@@H](C(=O)N[C@@H](CC(=O)O)c1ccc(-c2ccccc2)cc1)n1cc(CCN2CC(F)C2)cc(F)c1=O
28 | ≤ 0.01 | Cc1cccc(C)c1-c1cccc([C@H](CC(=O)O)NC(=O)[C@H](CC(C)C)n2cccc(CCN(C)C)c2=O)c1
29 | ≤ 0.01 | Cc1cccc(C)c1-c1cccc([C@H](CC(=O)O)NC(=O)[C@H](CC(C)C)n2ccc(CCN(C)C)cc2=O)c1
30 | ≤ 0.01 | Cc1cccc(C)c1-c1cncc([C@H](CC(=O)O)NC(=O)[C@H](CC(C)C)n2ccccc2=O)c1
31 | 0.01 to 0.5 | Cc1ccccc1-c1cccc([C@H](CC(=O)O)NC(=O)[C@H](CC(C)C)n2ccncc2=O)c1
32 | ≤ 0.01 | Cc1cccc(C)c1-c1cccc([C@H](CC(=O)O)NC(=O)[C@H](CC(C)C)n2cc(CN3CC(F)C3)ccc2=O)c1 [drawing 604]
33 | ≤ 0.01 | Cc1ccccc1-c1cc([C@H](CC(=O)O)NC(=O)C(CC(C)C)n2ccccc2=O)ccc1C#N (some centres unmarked)
34 | ≤ 0.01 | Cc1cccc(C)c1-c1cccc([C@H](CC(=O)O)NC(=O)[C@H](CC(C)C)n2cc(CCN(C)C)ccc2=O)c1
35 | ≤ 0.01 | Cc1cccc(C)c1-c1cccc([C@H](CC(=O)O)NC(=O)[C@H](CC(C)C)n2cc(CN3CC(F)C3)ccc2=O)c1 [drawing 585]
36 | ≤ 0.01 | Cc1ccc([C@@H](C(=O)N[C@@H](CC(=O)O)c2cncc(-c3c(C)cccc3C)c2)N2CC(C)CCC2=O)cc1 (some centres unmarked)
37 | ≤ 0.01 | Cc1cccc(C)c1-c1cncc([C@H](CC(=O)O)NC(=O)C(CC(C)C)n2cc(C(F)(F)F)ccc2=O)c1 (some centres unmarked)
38 | 0.01 to 0.5 | Cc1ccccc1-c1cc([C@H](CC(=O)O)NC(=O)[C@H](CC(C)C)n2ccccc2=O)ccc1C
